Test results as given in article PMC5784158, “New 2-Aryl-9-methyl-β-carbolinium salts as Potential Acetylcholinesterase Inhibitor agents: Synthesis, Bioactivity and Structure–Activity Relationship” (Scientific Reports, 2018).
Like-named read-outs stand apart in the source and are kept apart here. Marks after values point to notes of the source that are not given here.

Assays:
[1] = In vitro cytotoxicity, MTT assay; conditions: mouse, mouse neuroblastoma N2a cells
[2] = In vitro cytotoxicity, MTT assay; conditions: pig, primary cultured porcine fetal kidney cells
Description: (§1) In vitro cytotoxicity assay
(§2) Cytotoxic activity of the compounds was determined using MTT assay1. Primary cultured goat fetal fibroblasts and primary cultured porcine fetal kidney cells were cultured in the DMEM medium (high glucose) and a mixture culture medium consisting of 50% DMEM (high glucose) and 50% DMEM/F12, respectively, supplemented with 10% fetal bovine serum, penicillin (100 U/mL) and streptomycin (100 μg/mL) at 37 ℃ in 5% CO2. The cells at […]
(§3) After removal of the medium, the cells in each well were treated with 200 μL solution containing different concentrations of the tested compounds and vehicle controls which only received an equivalent amount of DMSO in quintuplicate for 48 h at 37 ℃. Thirty microliter of MTT solution (5 mg/mL in PBS) was added to each well with […] for an additional 4 h. After removing the supernatant, 150 μL of DMSO was added to completely dissolve the formazan crystals that had formed in viable cells in the wells. Finally, the plates were […]
(§4) containing the same media as other test wells but no cells were used as blank controls. All the doses were tested in quintuplicate and the experiments were repeated at least three times. The inhibition rates (IRs) were calculated.
(§5) (GraphPad Software Inc., San Diego, CA, USA).

AChE [3] = target: T1, AChE (Musca domestica, UniProt Q7YWJ9); experiment: Kinetic analysis of AChE inhibition (substrate ATCh); format: biochemical, fly; conditions: for Ki: substrate ATCh, read-out: inhibition constant Ki for AChE; for mechanism of AChE inhibition: with respect to substrate ATCh
T1 sequence (Q7YWJ9 81-659): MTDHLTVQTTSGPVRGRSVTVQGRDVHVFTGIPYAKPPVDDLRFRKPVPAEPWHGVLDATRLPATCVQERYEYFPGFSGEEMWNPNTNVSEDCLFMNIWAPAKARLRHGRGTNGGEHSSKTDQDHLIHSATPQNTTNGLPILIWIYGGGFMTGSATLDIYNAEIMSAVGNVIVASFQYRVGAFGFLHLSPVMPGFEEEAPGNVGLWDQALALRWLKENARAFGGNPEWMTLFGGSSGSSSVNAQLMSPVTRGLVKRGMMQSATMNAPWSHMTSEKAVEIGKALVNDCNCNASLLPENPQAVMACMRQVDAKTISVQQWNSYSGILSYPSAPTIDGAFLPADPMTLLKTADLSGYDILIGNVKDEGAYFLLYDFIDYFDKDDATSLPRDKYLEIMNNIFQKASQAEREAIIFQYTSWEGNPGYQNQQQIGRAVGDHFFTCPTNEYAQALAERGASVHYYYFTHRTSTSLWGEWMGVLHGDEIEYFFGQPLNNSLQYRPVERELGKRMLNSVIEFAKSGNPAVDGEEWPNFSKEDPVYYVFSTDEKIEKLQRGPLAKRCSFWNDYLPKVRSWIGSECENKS
Source text: (A and B) The reciprocals of the initial reaction rates and substrate concentrations are plotted. (C and D) The slope values of the lines from graph A or C are plotted versus the inhibitor concentration, affording an equation of linear regression.

BuChE [4] = target: T2, BuChE (Equus caballus, UniProt P81908); experiment: BuChE inhibition, Ellman's method; format: biochemical, horse; conditions: read-out: IC50 ± S.D BuChE
T2 construct: BuChE (E.C. 3.1.1.8) (BR, 20 u/mg) from horse serum; purchased Shanghai Yuanye biological technology Co. Ltd (Shanghai, China); host or cells: horse serum (tissue-derived)
T2 sequence (P81908 whole entry): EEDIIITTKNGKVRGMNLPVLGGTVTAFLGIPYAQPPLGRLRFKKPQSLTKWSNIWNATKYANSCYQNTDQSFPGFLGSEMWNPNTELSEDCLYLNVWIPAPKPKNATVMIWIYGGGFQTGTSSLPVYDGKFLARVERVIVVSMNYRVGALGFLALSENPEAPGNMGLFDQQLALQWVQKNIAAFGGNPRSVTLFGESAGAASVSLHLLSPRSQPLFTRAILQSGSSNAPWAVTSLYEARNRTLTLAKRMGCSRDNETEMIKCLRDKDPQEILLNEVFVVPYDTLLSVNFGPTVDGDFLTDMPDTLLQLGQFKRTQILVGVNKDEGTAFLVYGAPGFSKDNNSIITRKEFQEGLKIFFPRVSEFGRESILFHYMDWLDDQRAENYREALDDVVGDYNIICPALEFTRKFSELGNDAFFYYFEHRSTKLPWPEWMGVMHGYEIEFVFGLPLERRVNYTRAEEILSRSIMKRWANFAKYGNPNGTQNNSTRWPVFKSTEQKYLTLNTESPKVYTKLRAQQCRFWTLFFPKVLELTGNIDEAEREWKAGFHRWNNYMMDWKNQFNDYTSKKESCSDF
Source text: There is increasing recognition that BuChE may play an important role in cholinergic transmission[15],[16]. While the level of AChE decreases dramatically in the advanced stage of AD, BuChE increases in brain regions involved in cognitive functions[17],[18]. At this point, BuChE is able to compensate for AChE loss by hydrolyzing ACh. These observations lead one to believe that inhibition of both AChE and BuChE may contribute to improvement of current symptomatic treatments of AD. Therefore, the compounds in Table 2 were also evaluated for BuChE inhibition activity by means of Ellman’s method. […] AChE (E.C. 3.1.1.7) (BR, 200 u/mg) from fly’s head and BuChE (E.C. 3.1.1.8) (BR, 20 u/mg) from horse serum were purchased from Shanghai Yuanye biological technology Co. Ltd (Shanghai, China).
(§6) The inhibitory activities of the compounds against AChE were evaluated according to Ellman’s coupled enzyme assay[47] with the following modifications. 90 μL potassium phosphate buffer (PBS, 0.1 M, pH 7.4), 10 μL the solution of 2 units/mL AChE in 0.1 M PBS (pH 7.4) and 10 μL the solution of 200 μM test compounds in the mixed solution of methanol-PBS (pH 7.4) (1:9, V/V) were added to each well of a 96-well plate. The methanol-PBS solution was used as a blank control. After incubation at room temperature for 10 min, 60 μL the solution of 10 mM DTNB in PBS was added into each the well. The plate was placed on crushed ices and cooled for 20 min. To each the well was added 30 μL the solution of 7.5 mM ATCh in PBS (pH 7.4). […] Each test was performed in triplicate. Inhibition rates of the enzyme were calculated relative to a control sample. The inhibitory activities against BuChE were measured as described above for AChE, using 0.7 unit/mL BuChE and 4 mM BuTCh instead of AChE and ATCh as the enzyme and substrate, respectively.
(§7) The probit value of the average inhibition rate for each test concentration and the corresponding lg[concentration] were used to establish enzyme inhibition regression equation by the linear least-square fitting method. IC50 values were calculated from the equations.

AChE [5] = target: T1, AChE; experiment: biochemical; format: biochemical, fly; conditions: for IC50: read-out: IC50 ± S.D AChE
Description: AChE (E.C. 3.1.1.7) (BR, 200 u/mg) from fly’s head and BuChE (E.C. 3.1.1.8) (BR, 20 u/mg) from horse serum were purchased from Shanghai Yuanye biological technology Co. Ltd (Shanghai, China).
as §6, §7

[6] = test system: mouse neuroblastoma N2a cells; experiment: In vitro cytotoxicity, MTT assay; conditions: read-out: Cytotoxicity IC50, mouse neuroblastoma N2a cells; 48 h
[7] = test system: primary cultured porcine fetal kidney cells; experiment: In vitro cytotoxicity, MTT assay; conditions: read-out: Cytotoxicity IC50, primary cultured porcine fetal kidney cells; 48 h
Description: as §1, §2, §3, §4, §5

BuChE [8] = conditions: read-out: IC50 ± S.D BuChE; cited from earlier work
AChE [9] = conditions: cited from earlier work
[10] = test concentration of the compound 10 μM

Row | SMILES | IC50 (BuChE [4]) | SI: selectivity index, ratio IC50 (BuChE)/IC50 (AChE) (AChE [5]) | IC50 (AChE [5]) | Inhibition rate (%) (AChE [5]; [10]) | other results
1 | Cc1ccc([N+]2=Cc3c(c4ccccc4n3C)CC2)cc1 [Compound A22] | 80.1 ± 5.27 µM | 55.2 | 1.45 ± 0.21 µM |  | IC50 at 48 h [1]: 2.13 µM; IC50 at 48 h [2]: 5.18 µM; Ki (AChE [3]): 0.483 µM; mechanism of AChE inhibition (AChE [3]): competitive; inhibition at 10 µM (AChE [5]; test concentration of the compound 10 μM, read-out: Inhibition rate (%)): 77.6 ± 1.5%
2 | Cn1c2ccccc2c2cc[n+](-c3cccc(I)c3)cc21.[Br-] [Compound B12, 9-Methyl-2-(3-iodohenyl)-β-carboline bromide] | 21.1 ± 0.46 µM | 1.90 | 11.1 ± 1.34 µM | 56.4 ± 5.9 no % | 
3 | Cn1c2ccccc2c2cc[n+](-c3ccc(I)cc3)cc21.[Br-] [Compound B13, 9-Methyl-2-(4-iodohenyl)-β-carboline bromide] | 40.4 ± 1.83 µM | 168.3 |  | 93.8 ± 0.4 abcd % | 
4 | Cn1c2ccccc2c2cc[n+](-c3cccc(O)c3)cc21.[Br-] [Compound B15, 9-Methyl-2-(3-hydroxyhenyl)-β-carboline bromide] | 29.6 ± 2.48 µM | 7.60 | 3.92 ± 0.3 µM | 72.1 ± 1.8 l % | 
5 | Cn1c2ccccc2c2cc[n+](-c3ccc(O)cc3)cc21.[Br-] [Compound B16, 9-Methyl-2-(4-hydroxyhenyl)-β-carboline bromide] | 67.9 ± 11.5 µM | 45.3 | 1.5 ± 0.19 µM | 82.1 ± 2.5 ij % | 
6 | COc1cccc(-[n+]2ccc3c4ccccc4n(C)c3c2)c1.[Br-] [Compound B18, 9-Methyl-2-(3-methoxylphenyl)-β-carboline bromide] | 62.2 ± 3.62 µM | 6.42 | 9.69 ± 0.8 µM | 53.5 ± 0.4 op % | 
7 | COc1ccc(-[n+]2ccc3c4ccccc4n(C)c3c2)cc1.[Br-] [Compound B19, 9-Methyl-2-(4-methoxylphenyl)-β-carboline bromide] | 34 ± 2 µM | 72.3 | 0.47 ± 0.04 µM | 90.7 ± 0.8 def % | 
8 | Cc1ccccc1-[n+]1ccc2c3ccccc3n(C)c2c1.[Br-] [Compound B20, 9-Methyl-2-(2-methylphenyl)-β-carboline bromide] | 154 ± 9.1 µM | 15.9 | 9.71 ± 0.55 µM | 59.6 ± 3.2 n % | 
9 | Cc1cccc(-[n+]2ccc3c4ccccc4n(C)c3c2)c1.[Br-] [Compound B21, 9-Methyl-2-(3-methylphenyl)-β-carboline bromide] | 68.6 ± 8.06 µM | 13.6 | 5.05 ± 0.26 µM | 72.4 ± 3.9 l % | 
10 | Cc1ccc(-[n+]2ccc3c4ccccc4n(C)c3c2)cc1.[Br-] [Compound B22, 9-Methyl-2-(4-methylphenyl)-β-carboline bromide] | 32.2 ± 1.65 µM | 111.6 |  | 95.2 ± 0.5 abc % | IC50 [6]: 19.2 µM; IC50 [7]: 18.1 µM; binding capacity with AChE relative to substrate ATCh (AChE [3]; Km of ATCh versus Ki): ~3835 fold; binding capacity with AChE relative to A22 (AChE [3]; ratio of Ki values): approximately 11 fold; Ki (AChE [3]): 0.0425 µM; mechanism of AChE inhibition (AChE [3]): competitive
11 | Cn1c2ccccc2c2cc[n+](-c3ccccc3C#N)cc21.[Br-] [Compound B23, 9-Methyl-2-(2-cyanophenyl)-β-carboline bromide] | 196 ± 13.4 µM | 44.4 | 4.41 ± 0.29 µM | 68.7 ± 0.7 lm % | 
12 | Cn1c2ccccc2c2cc[n+](-c3cccc(C#N)c3)cc21.[Br-] [Compound B24, 9-Methyl-2-(3-cyanophenyl)-β-carboline bromide] | 212 ± 17.4 µM | 20.6 | 10.3 ± 0.6 µM | 50.7 ± 2.2 pq % | 
13 | Cn1c2ccccc2c2cc[n+](-c3ccc(C(F)(F)F)cc3)cc21.[Br-] [Compound B27, 9-Methyl-2-(4-trifluoromethylphenyl)-β-carboline bromide] | 77.9 ± 4.97 µM | 111.3 | 0.7 ± 0.11 µM | 91.4 ± 0.3 bcde % | 
14 | Cn1c2ccccc2c2cc[n+](-c3ccc(Cl)cc3Cl)cc21.[Br-] [Compound B30, 9-Methyl-2-(2,4-dichlorophenyl)-β-carboline bromide] | 133 ± 26.3 µM | 241.1 | 0.55 ± 0.07 µM | 90.6 ± 1.0 def % | 
15 | Cn1c2ccccc2c2cc[n+](-c3ccc(Br)cc3F)cc21.[Br-] [Compound B32, 9-Methyl-2-(2-fluoro-4-bromophenyl)-β-carboline bromide] | 116 ± 18.2 µM | 385.0 |  | 92.8 ± 1.0 abc % | 
16 | Cn1c2ccccc2c2cc[n+](-c3ccc(Br)cc3Br)cc21.[Br-] [Compound B33, 9-Methyl-2-(2,4-dibromophenyl)-β-carboline bromide] | 30.6 ± 2.31 µM | 278.2 |  | 96.7 ± 0.05 a % | IC50 [6]: 10.6 µM; IC50 [7]: > 20 µM
20 | CC(=O)SCC[N+](C)(C)C [acetylthiocholine iodide, Acetylthiocholine iodide, reference compound] |  |  |  |  | Km (AChE [3]; substrate): 163 µM
21 | Nc1c2c(nc3cc(Cl)ccc13)C[C@H]1C=C(CCO)C[C@@H]2C1 [huprine W] |  |  |  |  | IC50 (AChE [9]; inhibitor co-crystallised with AChE (PDB 4BDT), reference not given, read-out: IC50 AChE): 0.0011 µM
